Reference: ChEMBL document CHEMBL1201862, “PubChem BioAssay data set” (2004)
Calls of active or inactive are those of the source.

Legend:
[1] = target: T1, Tyrosine-protein phosphatase non-receptor type 22 (Homo sapiens, UniProt Q9Y2R2); format: functional
T1 sequence (Q9Y2R2 whole entry): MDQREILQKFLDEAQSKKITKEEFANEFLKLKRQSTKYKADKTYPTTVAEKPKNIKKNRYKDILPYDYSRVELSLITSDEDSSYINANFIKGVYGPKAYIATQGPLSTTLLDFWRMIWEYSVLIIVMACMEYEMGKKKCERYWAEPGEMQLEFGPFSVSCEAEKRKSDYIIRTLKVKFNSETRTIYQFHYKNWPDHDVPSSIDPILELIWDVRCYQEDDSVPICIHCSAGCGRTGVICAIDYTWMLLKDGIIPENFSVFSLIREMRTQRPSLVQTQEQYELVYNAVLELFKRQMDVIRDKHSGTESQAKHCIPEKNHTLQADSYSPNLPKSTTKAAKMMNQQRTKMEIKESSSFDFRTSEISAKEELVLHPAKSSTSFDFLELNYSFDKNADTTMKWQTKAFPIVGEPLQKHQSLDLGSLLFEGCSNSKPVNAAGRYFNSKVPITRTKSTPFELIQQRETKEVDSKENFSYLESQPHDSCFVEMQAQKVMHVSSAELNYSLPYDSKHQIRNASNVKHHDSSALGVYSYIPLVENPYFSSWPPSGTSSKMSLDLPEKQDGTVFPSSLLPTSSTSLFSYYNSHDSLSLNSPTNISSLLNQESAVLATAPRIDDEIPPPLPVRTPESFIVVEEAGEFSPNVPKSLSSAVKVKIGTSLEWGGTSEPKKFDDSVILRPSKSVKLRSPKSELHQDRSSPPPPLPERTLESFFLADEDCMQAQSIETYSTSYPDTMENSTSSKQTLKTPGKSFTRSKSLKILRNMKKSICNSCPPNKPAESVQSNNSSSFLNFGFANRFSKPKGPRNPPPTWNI

[2] = target: T1, Tyrosine-protein phosphatase non-receptor type 22; format: functional; remark: listed apart in the source
[3] = target: T2, Tyrosine-protein phosphatase non-receptor type 7 (Homo sapiens, UniProt P35236); format: functional
T2 sequence (P35236 whole entry): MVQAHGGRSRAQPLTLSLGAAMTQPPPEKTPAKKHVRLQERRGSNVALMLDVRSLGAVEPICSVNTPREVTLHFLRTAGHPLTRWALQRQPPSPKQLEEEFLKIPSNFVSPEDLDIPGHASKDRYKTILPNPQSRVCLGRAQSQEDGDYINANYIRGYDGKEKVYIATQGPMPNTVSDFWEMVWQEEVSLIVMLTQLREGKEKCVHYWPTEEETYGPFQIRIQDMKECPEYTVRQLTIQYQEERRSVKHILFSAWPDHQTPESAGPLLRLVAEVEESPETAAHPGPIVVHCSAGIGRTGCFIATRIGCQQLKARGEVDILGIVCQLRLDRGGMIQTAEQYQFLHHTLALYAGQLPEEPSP

[4] = target: Troponin, cardiac muscle (Homo sapiens, UniProt P19429+P45379+P63316); experiment: Fluorescence-based biochemical high throughput dose response assay for activators of the calcium sensitivity of cardiac Regulated Thin Filaments (RTF). [Related pubchem assays (depositor defined):AID493008, AID493018, AID504382, AID504383]; format: protein-complex assay
[5] = target: T3, CAAX prenyl protease 2 (Saccharomyces cerevisiae S288c, UniProt Q03530); format: biochemical
T3 sequence (Q03530 whole entry): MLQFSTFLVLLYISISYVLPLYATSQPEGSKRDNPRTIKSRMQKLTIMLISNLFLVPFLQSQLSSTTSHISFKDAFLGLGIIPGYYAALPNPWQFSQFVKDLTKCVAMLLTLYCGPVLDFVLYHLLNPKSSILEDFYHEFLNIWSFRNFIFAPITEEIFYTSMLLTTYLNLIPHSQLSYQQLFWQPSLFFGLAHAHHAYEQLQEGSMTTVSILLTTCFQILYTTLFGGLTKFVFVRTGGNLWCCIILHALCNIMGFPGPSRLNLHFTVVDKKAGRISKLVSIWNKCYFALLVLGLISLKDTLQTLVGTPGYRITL

[6] = mammalian cell cytotoxicity, dose response, cytotoxicity control, plate reader, cherry-pick samples (AID 504397); format: functional, cell-based
[7] = target: T2, Tyrosine-protein phosphatase non-receptor type 7; experiment: HePTP (PTPN7) phosphatase inhibitor potency, SAR follow-up, biochemical, set 2 (AID 449736); format: functional
[8] = target: T4, Runt-related transcription factor 1/Core-binding factor subunit beta (Homo sapiens, UniProt Q01196+Q13951); experiment: inhibitors of RUNX1 Runt–CBFb-SMMHC binding, biochemical, TR-FRET (AID 1438); format: protein assay
[9] = target: T4, Runt-related transcription factor 1/Core-binding factor subunit beta; experiment: inhibitors of RUNX1 Runt–CBFb-SMMHC binding, primary screen, biochemical, FRET, Cerulean-Runt, Venus-CBFb-SMMHC, uHTS (AID 1434); format: protein assay;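 further: partner is the CBFb-SMMHC leukemia fusion protein rather than wild-type CBFb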
[10] = target: T5, Dual specificity protein phosphatase 6 (Rattus norvegicus, UniProt Q64346); experiment: MKP-3 phosphatase inhibitors, primary screen, biochemical, rat enzyme, in vitro (AID 425)
T5 sequence (Q64346 whole entry): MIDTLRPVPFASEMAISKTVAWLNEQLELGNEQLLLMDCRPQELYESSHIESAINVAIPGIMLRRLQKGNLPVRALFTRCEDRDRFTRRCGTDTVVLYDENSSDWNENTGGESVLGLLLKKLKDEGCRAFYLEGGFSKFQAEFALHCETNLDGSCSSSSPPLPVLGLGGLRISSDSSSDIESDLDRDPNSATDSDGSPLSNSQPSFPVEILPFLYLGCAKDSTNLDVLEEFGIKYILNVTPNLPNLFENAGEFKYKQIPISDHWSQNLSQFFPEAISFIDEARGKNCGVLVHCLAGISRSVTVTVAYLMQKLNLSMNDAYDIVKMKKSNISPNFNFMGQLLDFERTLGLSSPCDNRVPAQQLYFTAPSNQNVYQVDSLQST

[11] = target: T6, Dual specificity protein phosphatase 3 (Homo sapiens, UniProt P51452); experiment: VHR1 phosphatase inhibitors, primary screen, biochemical, absorbance, uHTS (AID 1654)
[12] = target: T7, Carboxy-terminal domain RNA polymerase II polypeptide A small phosphatase 1 (Homo sapiens, UniProt Q9GZU7); experiment: inhibitors of CTDSP1, concentration-response testing, biochemical assay, absorbance-based, actives from ultra-high-throughput screening (AID 540297); format: functional
T7 sequence (Q9GZU7 whole entry): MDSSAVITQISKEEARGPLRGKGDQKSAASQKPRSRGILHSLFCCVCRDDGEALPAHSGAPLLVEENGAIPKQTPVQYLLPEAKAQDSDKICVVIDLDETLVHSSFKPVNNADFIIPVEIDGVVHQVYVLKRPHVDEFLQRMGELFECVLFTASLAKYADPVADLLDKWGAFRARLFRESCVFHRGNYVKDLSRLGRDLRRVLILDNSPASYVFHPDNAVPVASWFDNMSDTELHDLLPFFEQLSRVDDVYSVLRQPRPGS

[13] = target: T6, Dual specificity protein phosphatase 3; experiment: VHR1 phosphatase inhibitors, biochemical (AID 1878)
[14] = target: T8, RNA-binding protein pos-1 (Caenorhabditis elegans, UniProt G5EF15); experiment: inhibitors of POS-1/mex-3 RNA binding, dose response, biochemical, fluorescence polarization (AID 1964);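 further: purified POS-1 fused to maltose binding protein made in E. coli; potency of compounds blocking POS-1 binding to fluorescent RNA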
T8 sequence (G5EF15 whole entry): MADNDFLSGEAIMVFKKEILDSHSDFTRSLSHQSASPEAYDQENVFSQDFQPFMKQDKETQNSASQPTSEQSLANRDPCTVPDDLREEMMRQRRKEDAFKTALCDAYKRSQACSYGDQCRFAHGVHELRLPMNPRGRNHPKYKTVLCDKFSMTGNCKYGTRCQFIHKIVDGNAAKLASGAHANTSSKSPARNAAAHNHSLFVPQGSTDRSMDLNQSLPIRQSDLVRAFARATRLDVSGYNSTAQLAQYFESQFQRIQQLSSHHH

[15] = target: T9, Zinc finger protein mex-5 (Caenorhabditis elegans, UniProt Q9XUB2); experiment: MEX-5/TCR-2 RNA interaction inhibitors, dose response, biochemical, C. elegans, fluorescence polarization (AID 1960)
T9 sequence (Q9XUB2 whole entry): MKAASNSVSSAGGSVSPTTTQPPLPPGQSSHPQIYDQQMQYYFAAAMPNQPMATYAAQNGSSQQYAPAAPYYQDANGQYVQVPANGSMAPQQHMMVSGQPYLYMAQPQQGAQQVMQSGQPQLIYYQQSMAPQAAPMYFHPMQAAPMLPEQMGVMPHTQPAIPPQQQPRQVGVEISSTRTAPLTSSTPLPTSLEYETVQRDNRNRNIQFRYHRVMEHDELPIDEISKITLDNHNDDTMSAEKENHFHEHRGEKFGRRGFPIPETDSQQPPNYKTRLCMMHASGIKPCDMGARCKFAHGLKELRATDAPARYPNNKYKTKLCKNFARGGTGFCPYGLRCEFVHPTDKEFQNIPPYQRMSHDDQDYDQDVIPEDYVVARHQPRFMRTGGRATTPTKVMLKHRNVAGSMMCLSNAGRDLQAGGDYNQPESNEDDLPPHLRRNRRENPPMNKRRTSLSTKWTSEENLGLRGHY

[16] = target: SUMO-activating enzyme (Homo sapiens, UniProt Q9UBT2); experiment: SUMOylation inhibitor hit validation, confirmation, SUMOylation inhibitor project, biochemical, AlphaScreen (AID 2018); format: functional
[17] = target: T10, Corticotropin-releasing factor receptor 2/Corticotropin-releasing factor-binding protein (Homo sapiens, UniProt P24387+Q13324); experiment: activators of CRF receptor 2 with binding protein – uHTS hits, confirmation (AID 602473); format: functional; details: read-out: EC50_Mean
T10 sequence (Q13324 whole entry): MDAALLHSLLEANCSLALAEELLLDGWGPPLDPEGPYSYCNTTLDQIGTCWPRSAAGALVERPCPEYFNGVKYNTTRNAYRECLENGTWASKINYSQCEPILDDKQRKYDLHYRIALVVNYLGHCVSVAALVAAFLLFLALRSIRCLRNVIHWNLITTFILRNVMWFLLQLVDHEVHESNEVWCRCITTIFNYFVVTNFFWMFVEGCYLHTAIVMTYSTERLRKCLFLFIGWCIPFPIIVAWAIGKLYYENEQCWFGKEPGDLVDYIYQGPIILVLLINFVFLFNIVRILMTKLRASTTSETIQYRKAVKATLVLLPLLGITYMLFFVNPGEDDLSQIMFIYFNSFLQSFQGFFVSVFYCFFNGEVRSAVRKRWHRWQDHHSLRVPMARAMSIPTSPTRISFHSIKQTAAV
T10 sequence (P24387 whole entry): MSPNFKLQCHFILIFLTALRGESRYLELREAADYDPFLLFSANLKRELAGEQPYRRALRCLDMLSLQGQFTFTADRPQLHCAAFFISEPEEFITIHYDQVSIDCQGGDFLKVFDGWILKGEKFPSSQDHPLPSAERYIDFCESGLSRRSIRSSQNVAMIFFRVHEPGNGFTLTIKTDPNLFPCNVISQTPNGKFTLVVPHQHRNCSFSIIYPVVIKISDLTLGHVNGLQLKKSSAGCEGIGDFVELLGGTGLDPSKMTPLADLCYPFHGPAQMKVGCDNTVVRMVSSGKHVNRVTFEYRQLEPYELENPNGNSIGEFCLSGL

[18] = target: T11, Cannabinoid receptor 2 (Homo sapiens, UniProt P34972); experiment: SAR analysis of antagonists of the Cannabinoid Receptor 2 using an Image-Based Assay - Set 3. [Related pubchem assays (depositor defined):AID2013, AID2026]; format: functional
[19] = target: T12, Cannabinoid receptor 1 (Homo sapiens, UniProt P21554); experiment: SAR analysis of antagonists of the Cannabinoid Receptor 1 using an Image-Based Assay - Set 4. [Related pubchem assays (depositor defined):AID2013, AID2026]; format: functional
[20] = target: T13, G-protein coupled receptor 35 (Homo sapiens, UniProt Q9HC97); experiment: SAR analysis of Agonists of the GPR35 Receptor using an Image-Based Assay - Set 4. [Related pubchem assays (depositor defined):AID2013, AID2026]; format: functional
[21] = target: T13, G-protein coupled receptor 35; experiment: SAR analysis of Antagonists of the GPR35 Receptor using an Image-Based Assay - Set 6. [Related pubchem assays (depositor defined):AID2013, AID2026]; format: functional
[22] = target: T11, Cannabinoid receptor 2; experiment: SAR analysis of agonists of the Cannabinoid Receptor 2 using an Image-Based Assay - Set 3. [Related pubchem assays (depositor defined):AID2013, AID2026]; format: functional
[23] = target: T12, Cannabinoid receptor 1; experiment: SAR analysis of agonists of the Cannabinoid Receptor 1 using an Image-Based Assay - Set 4. [Related pubchem assays (depositor defined):AID2013, AID2026]; format: functional
[24] = target: G-protein coupled receptor 55 (Homo sapiens, UniProt Q9Y2T6); experiment: SAR Analysis of Selective Antagonists of GPR55 using an Image-Based Assay - Set 4. [Related pubchem assays (depositor defined):AID2013, AID2026]; format: functional;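 further: antagonism of response to 5 µM lysophosphatidylinositol agonist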

CCc1nc2cc([N+](=O)[O-])c([N+](=O)[O-])cc2[nH]1
IC50 [1]: > 79.4 µM (inactive) | IC50 [2]: > 79.4 µM (inactive) | IC50 [3]: > 79.4 µM (inactive)

COc1ccc(C(=O)Nn2cnc3scc(-c4cccs4)c3c2=O)c(O)c1
EC50 [4]: > 71.5 µM (inactive)

COc1ccc(-c2cc(C(=O)N3CCN(c4ccccc4)CC3)c3ccccc3n2)cc1
AC50 [5]: 4.71 µM (active) | AC50 [6]: 57.4 µM (active)

Cc1cccc(NC(=S)Nc2ccc(S(N)(=O)=O)cc2)c1
IC50 [7]: > 100 µM (inactive)

C=CCOc1c(Br)cc(C2C3=C(CCCC3=O)N(C)C3=C2C(=O)CCC3)cc1OCC
IC50 [8]: 41.2 µM (active) | IC50 [9]: 0.865 µM (active)

Cc1ccc(NC(=O)CN2C(=O)S/C(=C\c3cccn3-c3cccc(C(=O)O)c3)C2=O)cc1C
IC50 [10]: 17.2 µM (active) | IC50 [11]: 6.14 µM (active) | IC50 [12]: 3.28 µM (active) | IC50 [13]: 4.36 µM (active) | EC50 [14]: > 300 µM (not active) | EC50 [15]: > 300 µM (not active)

O=C(Nc1nnc(-c2ccccc2)o1)c1nc2ccccc2s1
IC50 [16]: 16.3 µM (active) | EC50 [17]: 7.07 µM (active)

Cc1nc(N2CCN(C(=O)C3CC3)CC2)c2c3c(sc2n1)CC(C)CC3 (centres undefined)
IC50 [18]: > 32 µM (inactive) | IC50 [19]: 17.9 µM (inactive) | EC50 [20]: > 32 µM (inactive) | IC50 [21]: > 32 µM (inactive) | EC50 [22]: > 32 µM (inactive) | EC50 [23]: > 32 µM (inactive) | IC50 [24]: 10.6 µM (inactive)
